Results published in US20230002367A1, “BIFUNCTIONAL COMPOUNDS” (Hoffmann-La Roche Inc., priority 2019, published 2023).

Biological target: T1, SMARCA2 (Homo sapiens, UniProt P51531)
T1 construct: endogenous in cells
Assay: SMARCA2 HiBiT degradation assay (cellular)
Type: cell-based
Conditions: for Emax: A549, Emax = amount of residual protein remaining in the cell following compound treatment; for DC50: SMARCA2 HiBiT cells, luminescence readout, 11-point titration from 10 μM, 6 hours or 16 hours, read-out: HiBit A549 SMARCA2 IP

T1 sequence (P51531 whole entry): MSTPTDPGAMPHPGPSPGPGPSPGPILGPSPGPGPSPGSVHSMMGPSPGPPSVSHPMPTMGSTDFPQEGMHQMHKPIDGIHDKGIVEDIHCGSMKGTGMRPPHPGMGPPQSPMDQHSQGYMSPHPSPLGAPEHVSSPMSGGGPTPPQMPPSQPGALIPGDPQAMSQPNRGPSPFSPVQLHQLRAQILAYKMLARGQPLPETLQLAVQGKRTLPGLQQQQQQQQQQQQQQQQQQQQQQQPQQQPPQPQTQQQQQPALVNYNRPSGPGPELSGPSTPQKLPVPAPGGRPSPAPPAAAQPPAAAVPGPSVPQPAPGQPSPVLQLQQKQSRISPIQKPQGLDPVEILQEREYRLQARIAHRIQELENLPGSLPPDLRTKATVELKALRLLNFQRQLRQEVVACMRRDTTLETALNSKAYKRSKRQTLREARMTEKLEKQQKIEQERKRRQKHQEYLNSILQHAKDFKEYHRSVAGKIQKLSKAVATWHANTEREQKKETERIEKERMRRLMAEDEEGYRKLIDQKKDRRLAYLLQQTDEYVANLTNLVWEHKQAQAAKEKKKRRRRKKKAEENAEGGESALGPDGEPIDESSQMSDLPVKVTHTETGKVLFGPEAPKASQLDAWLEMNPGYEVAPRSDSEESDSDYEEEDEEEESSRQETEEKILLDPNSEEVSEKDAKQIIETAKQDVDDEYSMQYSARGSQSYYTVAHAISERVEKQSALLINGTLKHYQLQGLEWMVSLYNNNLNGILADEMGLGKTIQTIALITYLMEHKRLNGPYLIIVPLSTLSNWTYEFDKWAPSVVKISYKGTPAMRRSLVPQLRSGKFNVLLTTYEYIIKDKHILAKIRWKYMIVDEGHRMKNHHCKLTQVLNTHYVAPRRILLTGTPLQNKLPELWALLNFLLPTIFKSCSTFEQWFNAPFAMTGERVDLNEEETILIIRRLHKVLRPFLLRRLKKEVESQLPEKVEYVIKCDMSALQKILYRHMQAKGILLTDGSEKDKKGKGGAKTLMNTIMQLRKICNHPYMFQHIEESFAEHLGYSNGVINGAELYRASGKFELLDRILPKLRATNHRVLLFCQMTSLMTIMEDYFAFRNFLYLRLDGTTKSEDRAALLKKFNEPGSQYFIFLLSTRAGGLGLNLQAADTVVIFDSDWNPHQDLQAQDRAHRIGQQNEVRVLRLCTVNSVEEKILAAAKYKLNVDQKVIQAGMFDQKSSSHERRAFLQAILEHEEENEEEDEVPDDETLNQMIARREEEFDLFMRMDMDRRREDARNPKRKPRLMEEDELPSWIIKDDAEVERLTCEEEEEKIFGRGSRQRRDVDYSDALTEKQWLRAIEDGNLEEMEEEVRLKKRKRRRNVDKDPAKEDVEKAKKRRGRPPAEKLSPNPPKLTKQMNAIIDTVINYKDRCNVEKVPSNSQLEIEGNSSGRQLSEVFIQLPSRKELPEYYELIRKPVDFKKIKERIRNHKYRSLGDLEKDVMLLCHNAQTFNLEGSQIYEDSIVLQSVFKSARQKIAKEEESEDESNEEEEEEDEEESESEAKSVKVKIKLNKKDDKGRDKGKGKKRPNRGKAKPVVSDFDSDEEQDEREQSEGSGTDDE

For `Cc1ncsc1-c1ccc([C@H](C)NC(=O)[C@@H]2C[C@@H](O)CN2C(=O)[C@@H](NC(=O)CCCCCCCCCC(=O)N2CCN(CCOc3cccc(N4C5CCC4CN(c4cc(-c6ccccc6O)nnc4N)C5)c3)CC2)C(C)C)cc1` [Example 56, (2S,4R)-1-[(2S)-2-[[11-[4-[2-[3-[3-[3-amino-6-(2-hydroxyphenyl)pyridazin-4-yl]-3,8-diazabicyclo[3.2.1]octan-8-yl]phenoxy]ethyl]piperazin-1-yl]-11-oxo-undecanoyl]amino]-3-methyl-butanoyl]-4-hydroxy-N-[(1S)-1-[4-(4-methylthiazol-5-yl)phenyl]ethyl]pyrrolidine-2-carboxamide], the Emax was 20% and the DC50 was 0.091 µM.
`Cc1ncsc1-c1ccc(CNC(=O)[C@@H]2C[C@@H](O)CN2C(=O)[C@@H](NC(=O)CCCCCCCCC(=O)N2CCN(Cc3cccc(C#Cc4cc(-c5ccccc5O)nnc4N)c3)CC2)C(C)(C)C)cc1` [Example 53, (2S,4R)-1-[(2S)-2-[[10-[4-[[3-[2-[3-amino-6-(2-hydroxyphenyl)pyridazin-4-yl]ethynyl]phenyl]methyl]piperazin-1-yl]-10-oxo-decanoyl]amino]-3,3-dimethyl-butanoyl]-4-hydroxy-N-[[4-(4-methylthiazol-5-yl)phenyl]methyl]pyrrolidine-2-carboxamide] was tested, and the Emax was 44% and the DC50 was 0.24 µM.
Work on `Cc1ncsc1-c1ccc([C@H](C)NC(=O)[C@@H]2C[C@@H](O)CN2C(=O)[C@@H](NC(=O)CCCCCCCCC(=O)N2CCN(CCOc3cccc(N4CCCC(Oc5cc(-c6ccccc6O)nnc5N)C4)c3)CC2)C(C)(C)C)cc1` (mixture of isomers) [Example 71, rac-(2S,4R)-4-hydroxy-1-[rac-(2S)-2-[[10-[4-[2-[3-[3-[3-amino-6-(2-hydroxyphenyl)pyridazin-4-yl]oxy-1-piperidyl]phenoxy]ethyl]piperazin-1-yl]-10-oxo-decanoyl]amino]-3,3-dimethyl-butanoyl]-N-[rac-(1S)-1-[4-(4-methylthiazol-5-yl)phenyl]ethyl]pyrrolidine-2-carboxamide] yielded an Emax of 38% and a DC50 of 0.522 µM.
With `Cc1ncsc1-c1ccc([C@H](C)NC(=O)[C@@H]2C[C@@H](O)CN2C(=O)[C@@H](NC(=O)CCCCCCCCCCC(=O)N2CCN(CCOc3cccc(CCOc4cc(-c5ccccc5O)nnc4N)c3)CC2)C(C)(C)C)cc1` [Example 59, (2S,4R)-1-[(2S)-2-[[12-[4-[2-[3-[2-[3-amino-6-(2-hydroxyphenyl)pyridazin-4-yl]oxyethyl]phenoxy]ethyl]piperazin-1-yl]-12-oxo-dodecanoyl]amino]-3,3-dimethyl-butanoyl]-4-hydroxy-N-[(1S)-1-[4-(4-methylthiazol-5-yl)phenyl]ethyl]pyrrolidine-2-carboxamide] the Emax was 23% and the DC50 was 0.305 µM.
Molecule `Cc1ncsc1-c1ccc([C@H](C)NC(=O)[C@@H]2C[C@@H](O)CN2C(=O)[C@@H](NC(=O)CCCCCCCCC(=O)N2CCN(c3ccc(N4CCCC(Oc5cc(-c6ccccc6O)nnc5N)C4)cc3)CC2)C(C)(C)C)cc1` (mixture of isomers) [Example 33, rac-(2S,4R)-4-hydroxy-1-[rac-(2S)-2-[[10-[4-[4-[3-[3-amino-6-(2-hydroxyphenyl)pyridazin-4-yl]oxy-1-piperidyl]phenyl]piperazin-1-yl]-10-oxo-decanoyl]amino]-3,3-dimethyl-butanoyl]-N-[rac-(1S)-1-[4-(4-methylthiazol-5-yl)phenyl]ethyl]pyrrolidine-2-carboxamide] has an Emax of 22% and a DC50 of 0.073 µM.
`Cc1ncsc1-c1ccc(CNC(=O)[C@@H]2C[C@@H](O)CN2C(=O)[C@@H](NC(=O)CCCCCCCCC(=O)N2CCN(c3ccc(N4CCCC(Oc5cc(-c6ccccc6N)nnc5N)C4)cc3)CC2)C(C)(C)C)cc1` (stereo partly drawn) [Example 100, (2S,4R)-1-[(2S)-2-[[10-[4-[4-[3-[3-amino-6-(2-aminophenyl)pyridazin-4-yl]oxy-1-piperidyl]phenyl]piperazin-1-yl]-10-oxo-decanoyl]amino]-3,3-dimethyl-butanoyl]-4-hydroxy-N-[[4-(4-methylthiazol-5-yl)phenyl]methyl]pyrrolidine-2-carboxamide] showed an Emax of 62% and a DC50 of 0.998 µM.
`Cc1ncsc1-c1ccc(CNC(=O)[C@@H]2C[C@@H](O)CN2C(=O)[C@@H](NC(=O)CCCCCCCCC(=O)N2CCC(CNC(=O)C3(c4ccccc4)CCN(c4cc(-c5ccccc5O)nnc4N)CC3)CC2)C(C)(C)C)cc1` [Example 99, 1-[3-amino-6-(2-hydroxyphenyl)pyridazin-4-yl]-N-[[1-[10-[[(1S)-1-[(2S,4R)-4-hydroxy-2-[[4-(4-methylthiazol-5-yl)phenyl]methylcarbamoyl]pyrrolidine-1-carbonyl]-2,2-dimethyl-propyl]amino]-10-oxo-decanoyl]-4-piperidyl]methyl]-4-phenyl-piperidine-4-carboxamide] gave an Emax of 59% and a DC50 of 0.827 µM.
`Cc1ncsc1-c1ccc(CNC(=O)[C@@H]2C[C@@H](O)CN2C(=O)[C@@H](NC(=O)CCCCCCCC(=O)N2CCN(Cc3cccc(N4C5CCC4CN(c4cc(-c6ccccc6O)nnc4N)C5)c3)CC2)C(C)(C)C)cc1` [Example 3, (2S,4R)-1-[(2S)-2-[[9-[4-[[3-[3-[3-amino-6-(2-hydroxyphenyl)pyridazin-4-yl]-3,8-diazabicyclo[3.2.1]octan-8-yl]phenyl]methyl]piperazin-1-yl]-9-oxo-nonanoyl]amino]-3,3-dimethyl-butanoyl]-4-hydroxy-N-[[4-(4-methylthiazol-5-yl)phenyl]methyl]pyrrolidine-2-carboxamide] showed an Emax of 51% and a DC50 of 0.479 µM.
With `Cc1ncsc1-c1ccc(CNC(=O)[C@@H]2C[C@@H](O)CN2C(=O)[C@@H](NC(=O)CCCCCCCCC(=O)N2C3CCCC2CN(c2cc(-c4ccccc4O)nnc2N)C3)C(C)(C)C)cc1` [Example 19, (2S,4R)-1-[(2S)-2-[[10-[3-[3-Amino-6-(2-hydroxyphenyl)pyridazin-4-yl]-3,9-diazabicyclo[3.3.1]nonan-9-yl]-10-oxo-decanoyl]amino]-3,3-dimethyl-butanoyl]-4-hydroxy-N-[[4-(4-methylthiazol-5-yl)phenyl]methyl]pyrrolidine-2-carboxamide] the Emax was 18% and the DC50 was 0.754 µM.
`Cc1ncsc1-c1ccc([C@H](C)NC(=O)[C@@H]2C[C@@H](O)CN2C(=O)[C@@H](NC(=O)CCCCCC(=O)N2CCN(Cc3cccc(OC4CN(c5cc(-c6ccccc6O)nnc5N)C4)c3)CC2)C(C)(C)C)cc1` [Example 83, (2S,4R)-1-[(2S)-2-[[7-[4-[[3-[1-[3-amino-6-(2-hydroxyphenyl)pyridazin-4-yl]azetidin-3-yl]oxyphenyl]methyl]piperazin-1-yl]-7-oxo-heptanoyl]amino]-3,3-dimethyl-butanoyl]-4-hydroxy-N-[(1S)-1-[4-(4-methylthiazol-5-yl)phenyl]ethyl]pyrrolidine-2-carboxamide] gave an Emax of 44% and a DC50 of 0.789 µM.
Molecule `Cc1ncsc1-c1ccc([C@H](C)NC(=O)[C@@H]2C[C@@H](O)CN2C(=O)[C@@H](NC(=O)CCCCCCCCCCC(=O)N(C)CC(COc2cc(-c3ccccc3O)nnc2N)c2ccccc2)C(C)(C)C)cc1` (mixture of isomers) [Example 22, N′-[3-[3-amino-6-(2-hydroxyphenyl)pyridazin-4-yl]oxy-2-phenyl-propyl]-N′-methyl-N-[rac-(1S)-2,2-dimethyl-1-[rac-(2S,4R)-4-hydroxy-2-[[rac-(1S)-1-[4-(4-methylthiazol-5-yl)phenyl]ethyl]carbamoyl]pyrrolidine-1-carbonyl]propyl]dodecanediamide] has an Emax of 27% and a DC50 of 0.455 µM.
Work on `Cc1ncsc1-c1ccc(CNC(=O)[C@@H]2C[C@@H](O)CN2C(=O)[C@@H](NC(=O)CCCCCCCCC(=O)N[C@H]2C[C@H](Oc3cc(-c4ccccc4O)nnc3N)C2)C(C)(C)C)cc1` [Example 95, N-[3-[3-amino-6-(2-hydroxyphenyl)pyridazin-4-yl]oxycyclobutyl]-N′-[(1S)-1-[(2S,4R)-4-hydroxy-2-[[4-(4-methylthiazol-5-yl)phenyl]methylcarbamoyl]pyrrolidine-1-carbonyl]-2,2-dimethyl-propyl]decanediamide] yielded an Emax of 50% and a DC50 of 2.44 µM.
With `Cc1ncsc1-c1ccc([C@H](C)NC(=O)[C@@H]2C[C@@H](O)CN2C(=O)[C@@H](NC(=O)CCOCCOCCC(=O)N2CCN(c3ccc(N4CCCC(Oc5cc(-c6ccccc6O)nnc5N)C4)cc3)CC2)C(C)(C)C)cc1` (mixture of isomers) [Example 34, rac-(2S,4R)-4-hydroxy-1-[rac-(2S)-2-[3-[2-[3-[4-[4-[3-[3-amino-6-(2-hydroxyphenyl)pyridazin-4-yl]oxy-1-piperidyl]phenyl]piperazin-1-yl]-3-oxo-propoxy]ethoxy]propanoylamino]-3,3-dimethyl-butanoyl]-N-[rac-(1S)-1-[4-(4-methylthiazol-5-yl)phenyl]ethyl]pyrrolidine-2-carboxamide] the Emax was 47% and the DC50 was 1.1 µM.
Molecule `Cc1ncsc1-c1ccc(CNC(=O)[C@@H]2C[C@@H](O)CN2C(=O)C(NC(=O)CCCCCCC(=O)N2CCC3(CC2)CCN(c2cc(-c4ccccc4O)nnc2N)CC3)C(C)(C)C)cc1` (stereo in doubt) [Example 6, (2S,4R)-1-[(2R)-2-[[8-[9-[3-amino-6-(2-hydroxyphenyl)pyridazin-4-yl]-3,9-diazaspiro[5.5]undecan-3-yl]-8-oxo-octanoyl]amino]-3,3-dimethyl-butanoyl]-4-hydroxy-N-[[4-(4-methylthiazol-5-yl)phenyl]methyl]pyrrolidine-2-carboxamide] has an Emax of 54% and a DC50 of 2.91 µM.
Work on `Cc1ncsc1-c1ccc([C@H](C)NC(=O)[C@@H]2C[C@@H](O)CN2C(=O)[C@@H](NC(=O)CCCCCCCCC(=O)N2CCN(Cc3cccc(CCOc4cc(-c5ccccc5O)nnc4N)c3)CC2)C(C)(C)C)cc1` [Example 106, (2S,4R)-1-[(2S)-2-[[10-[4-[[3-[2-[3-amino-6-(2-hydroxyphenyl)pyridazin-4-yl]oxyethyl]phenyl]methyl]piperazin-1-yl]-10-oxo-decanoyl]amino]-3,3-dimethyl-butanoyl]-4-hydroxy-N-[(1S)-1-[4-(4-methylthiazol-5-yl)phenyl]ethyl]pyrrolidine-2-carboxamide] yielded an Emax of 39% and a DC50 of 0.346 µM.
